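Step 1: Grow cells in 96-well plates. Step 2: Expose to compound for 48 hours at 5 concentrations. Step 3: Interpolate endpoints linearly; if unreached, use highest concentration. GI50: concentration for 50% inhibition of growth.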 Calls of active or inactive are those of the source. Cut-off read from the data, not from the text of the source: active = GI50 up to about 1.1 µM and inactive = higher.
Key:
Test in all cases: inhibition of tumour cell growth, NCI panel, 48 h
[1] = test system: 786-0
[2] = test system: A498
[3] = test system: A549
[4] = test system: ACHN
[5] = test system: CAKI-1
[6] = test system: CCRF-CEM
[7] = test system: COLO 205
[8] = test system: DLD-1
[9] = test system: DMS-114
[10] = test system: DMS-273
[11] = test system: EKVX
[12] = test system: HCC 2998
[13] = test system: HCT-15
[14] = test system: HL-60
[15] = test system: HOP-62
[16] = test system: HOP-92
[17] = test system: HT-29
[18] = test system: IGROV-1
[19] = test system: K562
[20] = test system: KM-20L2
[21] = test system: KM12
[22] = test system: LOX IMVI
[23] = test system: LXFL 529
[24] = test system: M14
[25] = test system: M19-MEL
[26] = test system: MOLT-4
[27] = test system: Malme-3M
[28] = test system: NCI-H226
[29] = test system: NCI-H23
[30] = test system: NCI-H460
[31] = test system: NCI-H522
[32] = test system: OVCAR-3
[33] = test system: OVCAR-4
[34] = test system: OVCAR-5
[35] = test system: OVCAR-8
[36] = test system: RPMI-8226
[37] = test system: RXF 393
[38] = test system: SF-268
[39] = test system: SF-295
[40] = test system: SF-539
[41] = test system: SK-MEL-28
[42] = test system: SK-MEL-2
[43] = test system: SK-MEL-5
[44] = test system: SK-OV-3
[45] = test system: SN12C
[46] = test system: SNB-19
[47] = test system: SNB-75
[48] = test system: SNB-78
[49] = test system: SW-620
[50] = test system: TK-10
[51] = test system: UACC-257
[52] = test system: UACC-62
[53] = test system: UO-31
[54] = test system: HCT-116
[55] = test system: HOP-18
[56] = test system: SR
[57] = test system: U-251

For `CC1(c2ccccc2Cl)C(C#N)C(=O)NC(=O)C1C#N` (stereo not drawn), the GI50 [1] was 45.6 µM (inactive), the GI50 [2] was 36.4 µM (inactive) and the GI50 [3] was 45.5 µM (inactive). For the same compound, the GI50 [4] was 34.8 µM (inactive), the GI50 [5] was > 100 µM (inactive) and the GI50 [6] was 30.1 µM (inactive). For the same compound, the GI50 [7] was 45 µM (inactive), the GI50 [8] was 68.7 µM (inactive) and the GI50 [9] was 30.9 µM (inactive). For the same compound, the GI50 [10] was 33.6 µM (inactive), the GI50 [11] was 24.5 µM (inactive) and the GI50 [12] was 41.3 µM (inactive). The GI50 [13] was greater than 100 µM, the GI50 [14] was 21.6 µM (inactive) and the GI50 [15] was 30.6 µM (inactive). For the same compound, the GI50 [16] was 23.5 µM (inactive), the GI50 [17] was 36.6 µM (inactive) and the GI50 [18] was 64.1 µM (inactive). For the same compound, the GI50 [19] was 27.4 µM (inactive), the GI50 [20] was 36.1 µM (inactive) and the GI50 [21] was > 10 µM (inactive). The GI50 [22] was 40.1 µM (inactive), the GI50 [23] was 27 µM (inactive) and the GI50 [24] was 42.6 µM (inactive). For the same compound, the GI50 [25] was 35.3 µM (inactive), the GI50 [26] was 31.2 µM (inactive) and the GI50 [27] was 35.5 µM (inactive). For the same compound, the GI50 [28] was 27.5 µM (inactive), the GI50 [29] was 33.3 µM (inactive) and the GI50 [30] was 36.6 µM (inactive). The GI50 [31] was 20.8 µM (inactive), the GI50 [32] was 17.8 µM (inactive) and the GI50 [33] was 33.3 µM (inactive). The GI50 [34] was 91 µM (inactive), the GI50 [35] was 35.6 µM (inactive) and the GI50 [36] was 22.7 µM (inactive). The GI50 [37] was 27.9 µM (inactive), the GI50 [38] was 35.8 µM (inactive) and the GI50 [39] was 32.7 µM (inactive). For the same compound, the GI50 [40] was 34.8 µM (inactive), the GI50 [41] was 37.8 µM (inactive) and the GI50 [42] was 49.9 µM (inactive). The GI50 [43] was 25.8 µM (inactive), the GI50 [44] was 34.6 µM (inactive) and the GI50 [45] was 28.7 µM (inactive). The GI50 [46] was 28.7 µM (inactive), the GI50 [47] was 24.8 µM (inactive) and the GI50 [48] was 55.6 µM (inactive). For the same compound, the GI50 [49] was 43.8 µM (inactive), the GI50 [50] was > 100 µM (inactive) and the GI50 [51] was 30.5 µM (inactive). The GI50 [52] was 33.6 µM (inactive) and the GI50 [53] was 27.5 µM (inactive).
With `O=C(Nc1cccc(Cc2cccc(NC(=O)c3ccccc3)c2)c1)c1ccccc1` the GI50 [1] was 26.9 µM (inactive), the GI50 [2] was 17.8 µM (inactive) and the GI50 [3] was 24.8 µM (inactive). For the same compound, the GI50 [4] was 28.2 µM (inactive), the GI50 [5] was 16.9 µM (inactive) and the GI50 [6] was > 100 µM (inactive). For the same compound, the GI50 [7] was > 100 µM (inactive), the GI50 [8] was 91.8 µM (inactive) and the GI50 [9] was 10.6 µM (inactive). The GI50 [10] was 55 µM (inactive), the GI50 [11] was 23.3 µM (inactive) and the GI50 [12] was > 100 µM (inactive). For the same compound, the GI50 [54] was 50.6 µM (inactive), the GI50 [13] was 89.3 µM and the GI50 [14] was > 100 µM (inactive). The GI50 [55] was 34.3 µM (inactive), the GI50 [15] was 22 µM (inactive) and the GI50 [16] was 9.77 µM (inactive). The GI50 [17] was > 100 µM (inactive), the GI50 [18] was 47.8 µM (inactive) and the GI50 [19] was > 100 µM (inactive). For the same compound, the GI50 [20] was > 100 µM (inactive), the GI50 [21] was > 100 µM (inactive) and the GI50 [22] was > 100 µM (inactive). The GI50 [23] was 28.7 µM (inactive), the GI50 [24] was 55.1 µM (inactive) and the GI50 [25] was 63 µM (inactive). For the same compound, the GI50 [26] was > 100 µM (inactive), the GI50 [27] was 23.3 µM (inactive) and the GI50 [28] was 29 µM (inactive). For the same compound, the GI50 [29] was 33.1 µM (inactive), the GI50 [30] was 36.1 µM (inactive) and the GI50 [31] was 25.2 µM (inactive). The GI50 [32] was 26.9 µM (inactive), the GI50 [33] was 6.79 µM (inactive) and the GI50 [34] was > 100 µM (inactive). The GI50 [35] was 19.5 µM (inactive), the GI50 [37] was 14.8 µM (inactive) and the GI50 [38] was 34 µM (inactive). The GI50 [39] was 16.5 µM (inactive), the GI50 [40] was 12.6 µM (inactive) and the GI50 [41] was 41.7 µM (inactive). For the same compound, the GI50 [42] was 52.4 µM (inactive), the GI50 [43] was 25.1 µM (inactive) and the GI50 [44] was 25.8 µM (inactive). The GI50 [45] was 19.5 µM (inactive), the GI50 [46] was 25.4 µM (inactive) and the GI50 [47] was 10.5 µM (inactive). For the same compound, the GI50 [56] was > 100 µM (inactive), the GI50 [49] was > 100 µM (inactive) and the GI50 [50] was > 100 µM (inactive). The GI50 [57] was 20.1 µM (inactive), the GI50 [51] was 29.8 µM (inactive) and the GI50 [52] was 23.8 µM (inactive). For the same compound, the GI50 [53] was 12.7 µM (inactive).

Reference: ChEMBL document CHEMBL1201862, “PubChem BioAssay data set” (2004)
